We go through 3 compounds from ChEMBL document CHEMBL5291721, “A preclinical secondary pharmacology resource illuminates target-adverse drug reaction associations of marketed drugs” (Nat Commun, 2023).

Structures are written as SMILES.

Test [1] has as its target T1, Type-1 angiotensin II receptor (Homo sapiens, UniProt P30556).
T1 sequence (P30556 whole entry): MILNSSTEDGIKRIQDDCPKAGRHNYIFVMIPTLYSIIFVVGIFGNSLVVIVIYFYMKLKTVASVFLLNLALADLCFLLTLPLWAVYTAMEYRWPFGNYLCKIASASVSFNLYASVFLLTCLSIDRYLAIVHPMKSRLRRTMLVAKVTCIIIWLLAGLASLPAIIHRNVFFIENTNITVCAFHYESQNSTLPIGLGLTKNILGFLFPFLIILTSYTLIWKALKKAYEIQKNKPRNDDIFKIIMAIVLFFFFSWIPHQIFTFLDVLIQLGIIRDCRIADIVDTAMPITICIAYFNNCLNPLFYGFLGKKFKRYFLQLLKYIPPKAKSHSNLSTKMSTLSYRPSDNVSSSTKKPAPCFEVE

The target in test [2] is T2, Peroxisome proliferator-activated receptor alpha (Homo sapiens, UniProt Q07869).
T2 sequence (Q07869 whole entry): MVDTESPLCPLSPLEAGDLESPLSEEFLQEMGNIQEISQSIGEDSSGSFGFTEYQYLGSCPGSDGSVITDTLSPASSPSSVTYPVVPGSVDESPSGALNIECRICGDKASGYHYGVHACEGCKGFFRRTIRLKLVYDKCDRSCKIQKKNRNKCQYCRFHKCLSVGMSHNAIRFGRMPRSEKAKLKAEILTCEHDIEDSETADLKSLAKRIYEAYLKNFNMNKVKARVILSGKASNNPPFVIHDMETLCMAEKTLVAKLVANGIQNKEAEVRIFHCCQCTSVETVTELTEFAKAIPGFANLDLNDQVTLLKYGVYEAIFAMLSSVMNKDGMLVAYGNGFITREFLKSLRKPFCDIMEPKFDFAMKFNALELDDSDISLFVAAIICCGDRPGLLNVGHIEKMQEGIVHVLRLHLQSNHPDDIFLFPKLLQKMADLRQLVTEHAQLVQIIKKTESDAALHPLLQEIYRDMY
In kind it is functional.

For another test, the target named is T3, Adenosine receptor A3 (Homo sapiens, UniProt P0DMS8).
T3 sequence (P0DMS8 whole entry): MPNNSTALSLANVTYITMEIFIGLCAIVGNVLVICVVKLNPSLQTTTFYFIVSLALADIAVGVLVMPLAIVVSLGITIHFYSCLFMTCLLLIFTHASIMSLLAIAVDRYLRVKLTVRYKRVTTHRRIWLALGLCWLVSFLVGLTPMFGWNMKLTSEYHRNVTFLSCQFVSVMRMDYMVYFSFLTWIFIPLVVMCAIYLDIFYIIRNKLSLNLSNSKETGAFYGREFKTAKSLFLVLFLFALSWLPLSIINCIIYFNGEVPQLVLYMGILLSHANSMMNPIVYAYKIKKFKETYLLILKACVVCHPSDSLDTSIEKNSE

Test [3] has as its target Prostaglandin G/H synthase 1 (Homo sapiens, UniProt P23219). Format: functional.
The target of the next test is T4, Progesterone receptor (Homo sapiens, UniProt P06401).
T4 sequence (P06401 whole entry): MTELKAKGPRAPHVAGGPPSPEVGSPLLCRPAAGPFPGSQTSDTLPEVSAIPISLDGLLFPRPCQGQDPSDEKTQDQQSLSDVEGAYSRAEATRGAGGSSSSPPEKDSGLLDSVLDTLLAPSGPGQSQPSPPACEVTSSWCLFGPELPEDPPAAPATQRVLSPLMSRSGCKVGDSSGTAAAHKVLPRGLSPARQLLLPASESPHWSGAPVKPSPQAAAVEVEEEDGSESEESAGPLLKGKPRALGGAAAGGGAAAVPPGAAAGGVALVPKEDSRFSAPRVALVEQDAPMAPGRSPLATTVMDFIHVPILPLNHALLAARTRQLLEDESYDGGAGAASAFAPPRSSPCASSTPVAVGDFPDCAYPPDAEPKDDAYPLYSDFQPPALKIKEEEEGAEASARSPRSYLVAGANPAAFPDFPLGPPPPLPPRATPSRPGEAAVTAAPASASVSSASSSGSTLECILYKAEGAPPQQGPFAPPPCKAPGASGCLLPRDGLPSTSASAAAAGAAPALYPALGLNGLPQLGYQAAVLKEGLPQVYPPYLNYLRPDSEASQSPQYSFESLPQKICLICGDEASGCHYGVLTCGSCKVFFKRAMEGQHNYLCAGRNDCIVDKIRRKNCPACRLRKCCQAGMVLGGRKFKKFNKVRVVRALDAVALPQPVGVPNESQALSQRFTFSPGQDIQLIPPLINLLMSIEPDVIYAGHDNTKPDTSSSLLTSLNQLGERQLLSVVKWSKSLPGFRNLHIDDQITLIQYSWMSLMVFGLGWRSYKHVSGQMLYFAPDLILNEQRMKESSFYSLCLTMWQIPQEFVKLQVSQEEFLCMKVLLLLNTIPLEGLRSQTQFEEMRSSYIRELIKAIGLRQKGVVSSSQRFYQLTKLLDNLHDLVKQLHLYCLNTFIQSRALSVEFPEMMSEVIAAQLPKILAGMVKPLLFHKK

Test [4] has as its target Gamma-aminobutyric acid receptor subunit alpha-1/alpha-2/beta-2/gamma-2 (Homo sapiens, UniProt P14867+P18507+P47869+P47870). Format: protein-complex assay.
Note: assay procedure not described here.

Sequence of Gamma-aminobutyric acid receptor subunit alpha-1/alpha-2/beta-2/gamma-2 (P14867 whole entry): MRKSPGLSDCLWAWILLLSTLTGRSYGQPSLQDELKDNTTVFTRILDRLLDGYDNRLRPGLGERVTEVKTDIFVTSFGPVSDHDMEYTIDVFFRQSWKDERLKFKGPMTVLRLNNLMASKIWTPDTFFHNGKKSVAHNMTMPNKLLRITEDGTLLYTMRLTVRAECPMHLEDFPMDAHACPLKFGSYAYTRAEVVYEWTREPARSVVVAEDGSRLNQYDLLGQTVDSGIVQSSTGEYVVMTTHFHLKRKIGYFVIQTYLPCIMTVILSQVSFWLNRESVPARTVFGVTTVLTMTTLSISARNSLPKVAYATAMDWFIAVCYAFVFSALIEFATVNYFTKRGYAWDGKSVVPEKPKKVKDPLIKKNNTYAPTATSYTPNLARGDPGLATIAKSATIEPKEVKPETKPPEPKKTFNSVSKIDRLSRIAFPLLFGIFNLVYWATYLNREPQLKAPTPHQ
Sequence of Gamma-aminobutyric acid receptor subunit alpha-1/alpha-2/beta-2/gamma-2 (P47870 whole entry): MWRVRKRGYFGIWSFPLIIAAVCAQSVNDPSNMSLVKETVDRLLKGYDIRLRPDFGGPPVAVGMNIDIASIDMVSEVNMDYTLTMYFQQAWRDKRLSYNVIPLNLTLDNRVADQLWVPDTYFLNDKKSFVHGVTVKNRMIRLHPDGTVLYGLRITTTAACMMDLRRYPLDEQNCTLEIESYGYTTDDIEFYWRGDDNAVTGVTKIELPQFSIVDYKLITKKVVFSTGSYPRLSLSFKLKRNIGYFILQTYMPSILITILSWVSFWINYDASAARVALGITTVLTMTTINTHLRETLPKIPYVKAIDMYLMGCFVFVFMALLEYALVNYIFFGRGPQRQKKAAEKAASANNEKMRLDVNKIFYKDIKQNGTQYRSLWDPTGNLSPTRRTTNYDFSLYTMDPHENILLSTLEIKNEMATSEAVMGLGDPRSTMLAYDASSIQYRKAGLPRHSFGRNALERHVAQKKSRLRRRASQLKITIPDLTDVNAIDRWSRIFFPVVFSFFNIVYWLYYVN
Sequence of Gamma-aminobutyric acid receptor subunit alpha-1/alpha-2/beta-2/gamma-2 (P18507 whole entry): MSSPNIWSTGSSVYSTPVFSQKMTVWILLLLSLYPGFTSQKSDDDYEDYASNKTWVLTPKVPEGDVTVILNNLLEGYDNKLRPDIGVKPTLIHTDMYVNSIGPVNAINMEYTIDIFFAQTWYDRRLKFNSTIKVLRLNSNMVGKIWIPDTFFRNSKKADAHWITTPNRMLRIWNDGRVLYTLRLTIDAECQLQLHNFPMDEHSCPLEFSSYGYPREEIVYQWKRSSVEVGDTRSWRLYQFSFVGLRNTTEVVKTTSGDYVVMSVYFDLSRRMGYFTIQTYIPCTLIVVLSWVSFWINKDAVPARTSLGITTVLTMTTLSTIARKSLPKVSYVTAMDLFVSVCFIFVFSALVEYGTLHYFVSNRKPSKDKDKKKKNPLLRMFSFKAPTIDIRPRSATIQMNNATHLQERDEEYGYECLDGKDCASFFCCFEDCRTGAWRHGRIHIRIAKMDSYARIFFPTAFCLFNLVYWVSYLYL
Sequence of Gamma-aminobutyric acid receptor subunit alpha-1/alpha-2/beta-2/gamma-2 (P47869 whole entry): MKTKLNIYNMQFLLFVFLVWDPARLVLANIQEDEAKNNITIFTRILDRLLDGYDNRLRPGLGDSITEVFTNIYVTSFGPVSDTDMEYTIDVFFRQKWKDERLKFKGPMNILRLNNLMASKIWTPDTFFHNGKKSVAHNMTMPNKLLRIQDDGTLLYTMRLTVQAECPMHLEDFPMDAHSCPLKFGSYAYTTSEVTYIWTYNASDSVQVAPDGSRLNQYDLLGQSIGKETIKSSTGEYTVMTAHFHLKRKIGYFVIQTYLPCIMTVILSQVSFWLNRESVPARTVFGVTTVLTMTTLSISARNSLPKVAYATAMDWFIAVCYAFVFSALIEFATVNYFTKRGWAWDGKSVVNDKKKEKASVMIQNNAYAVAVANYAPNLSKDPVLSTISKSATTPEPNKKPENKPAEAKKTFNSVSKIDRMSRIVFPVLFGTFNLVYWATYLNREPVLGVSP
Sequence of Prostaglandin G/H synthase 1 (P23219 whole entry): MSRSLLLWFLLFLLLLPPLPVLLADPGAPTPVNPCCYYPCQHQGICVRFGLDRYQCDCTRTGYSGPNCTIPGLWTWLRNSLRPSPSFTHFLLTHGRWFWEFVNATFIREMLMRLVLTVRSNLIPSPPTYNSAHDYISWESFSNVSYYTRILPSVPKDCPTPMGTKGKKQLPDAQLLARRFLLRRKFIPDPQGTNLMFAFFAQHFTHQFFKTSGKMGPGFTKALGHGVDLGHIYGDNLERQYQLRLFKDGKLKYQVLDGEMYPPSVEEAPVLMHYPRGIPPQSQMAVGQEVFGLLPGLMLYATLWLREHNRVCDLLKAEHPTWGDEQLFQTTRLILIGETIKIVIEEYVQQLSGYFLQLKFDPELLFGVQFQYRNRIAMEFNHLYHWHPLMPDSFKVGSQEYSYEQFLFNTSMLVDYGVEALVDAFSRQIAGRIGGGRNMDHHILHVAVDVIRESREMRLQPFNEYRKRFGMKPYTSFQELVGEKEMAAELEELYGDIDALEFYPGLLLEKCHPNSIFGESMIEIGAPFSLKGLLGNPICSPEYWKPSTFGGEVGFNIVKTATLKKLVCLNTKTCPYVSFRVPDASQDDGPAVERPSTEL

Broadly, the AC50 is the concentration at which the activity in the assay is half-maximal. Consider `O=c1c(O)c(-c2ccc(O)c(O)c2)oc2cc(O)cc(O)c12` [QUERCETIN], for which the AC50 in test [1] is > 100 µM.
For the compound `CCOC(=O)C(C)(C)Oc1ccc(Cl)cc1` [CLOFIBRATE], in test [2], the concentration at half-maximal activity (AC50) was > 30 µM.
As for `CCN(CC)CCCC(C)Nc1c2ccc(Cl)cc2nc2ccc(OC)cc12` (stereo unspecified) [QUINACRINE], the AC50 is > 30 µM on Adenosine receptor A3, > 30 µM in test [3], > 10 µM at Progesterone receptor and > 30 µM in test [4].
